Measurements: patent US10849878B2 (OBSHCHESTVO S OGRANICHENNOY OTVETSTVENNOSTYU “NORMOFARM”, priority 2015, dated 2020)

Columns and labels:
rats [1] = test: Porsolt helplessness test; assay type: in vivo, rat
rats [2] = settings: comparison salts; cited from earlier work
[3] = in normal settings; cited from earlier work
[4] = 7 days after the dosing, LiAsc, LiCa 5 mg/kg, phenazepam 0.25 mg
[5] = 7 days after the drug withdrawal, 5 mg/kg
[6] = 28 days after the dosing, LiAsc, LiCa 5 mg/kg, phenazepam 0.25 mg
[7] = 28 days after the drug withdrawal, 5 mg/kg

Compound: O=C([O-])[O-].[Li+].[Li+] [Lithium carbonate]
- Adrenalin (rats [1]; [4]): 24.9 ± 9.5 µg/L
- Duration of activity (rats [1]; [4]): 100.9 ± 64.9 s
- Duration of immobility (rats [1]; [4]): 499.1 ± 53.0 s
- Eosinophils (Dunger method) in mm^3 (rats [1]; [4]): 312.6 ± 68.1 in mm^3
- Noradrenalin (rats [1]; [4]): 69.3 ± 35.2 µg/L
- Number of gastric ulcers (rats [1]; [4]): 5.9 ± 2.1
- Adrenalin (rats [1]; [5]): 29.6 ± 13.6 µg/L
- Duration of activity (rats [1]; [5]): 91.8 ± 43.9 s
- Duration of immobility (rats [1]; [5]): 507.9 ± 101.4 s
- Eosinophils (Dunger method) in mm^3 (rats [1]; [5]): 299.3 ± 93.5 in mm^3
- Noradrenalin (rats [1]; [5]): 80.6 ± 29.7 µg/L
- Number of gastric ulcers (rats [1]; [5]): 9.9 ± 3.7
- Adrenalin (rats [1]; [6]): 36.7 ± 9.6 µg/L
- Duration of activity (rats [1]; [6]): 90.8 ± 67.3 s
- Duration of immobility (rats [1]; [6]): 508.9 ± 107.2 s
- Eosinophils (Dunger method) in mm^3 (rats [1]; [6]): 301.8 ± 102.3 in mm^3
- Noradrenalin (rats [1]; [6]): 76.83 ± 30.2 µg/L
- Number of gastric ulcers (rats [1]; [6]): 7.3 ± 2.6
- Adrenalin (rats [1]; [7]): 37.1 ± 14.7 µg/L
- Duration of activity (rats [1]; [7]): 93.8 ± 32.7 s
- Duration of immobility (rats [1]; [7]): 504.4 ± 173.4 s
- Eosinophils (Dunger method) in mm^3 (rats [1]; [7]): 281.2 ± 83.1 in mm^3
- Noradrenalin (rats [1]; [7]): 76.34 ± 18.6 µg/L
- Number of gastric ulcers (rats [1]; [7]): 10.0 ± 4.8

Compound: O=C([O-])CCCO.[Li+] [Lithium oxibutirate]
- LD50, mg/kg in rats (rats [2]): 2200 mg/kg

Compound: [Br-].[Li+] [Lithium bromide]
- LD50, mg/kg in rats (rats [2]): 2200 mg/kg

Compound: O=C1CN=C(c2ccccc2Cl)c2cc(Br)ccc2N1 [phenazepam]
- Adrenalin (rats [1]; [4]): 6.8 ± 0.65 µg/L
- Duration of activity (rats [1]; [4]): 426.7 ± 76.4 s
- Duration of immobility (rats [1]; [4]): 173.3 ± 22.1 s
- Eosinophils (Dunger method) in mm^3 (rats [1]; [4]): 969.1 ± 42.3 in mm^3
- Noradrenalin (rats [1]; [4]): 17.6 ± 1.95 µg/L
- Number of gastric ulcers (rats [1]; [4]): 0.4 ± 0.1
- Adrenalin (rats [1]; [6]): 6.2 ± 0.57 µg/L
- Duration of activity (rats [1]; [6]): 494.8 ± 60.4 s
- Duration of immobility (rats [1]; [6]): 105.2 ± 20.1 s
- Eosinophils (Dunger method) in mm^3 (rats [1]; [6]): 988.1 ± 42.3 in mm^3
- Noradrenalin (rats [1]; [6]): 16.2 ± 1.1 µg/L
- Number of gastric ulcers (rats [1]; [6]): 0.1 ± 0.2

Compound: O=C1O[C@H]([C@@H](O)CO)C(O)=C1O [ascorbic acid]
- plasma concentration [3]: 10000 to 20000 ng/mL

Compound: [Cl-].[Li+] [Lithium chloride]
- LD50, mg/kg in rats (rats [2]): 970 mg/kg

Compound: NCCCC(=O)O [GABA lithium]
- LD50, mg/kg in rats (rats [2]): 1800 mg/kg

Compound: O=C([O-])c1ccccc1.[Li+] [Lithium benzoate]
- LD50, mg/kg in rats (rats [2]): 1200 mg/kg

Compound: O=C([O-])CCC(=O)[O-].[Li+].[Li+] [Lithium succynate]
- LD50, mg/kg in rats (rats [2]): 2416 mg/kg

Compound: Lithium nitrate trihydrate
- LD50, mg/kg in rats (rats [2]): 1400 mg/kg

Compound: [Li+].[O]=[Ta](=[O])[O-] [Lithium metatantalate]
- LD50, mg/kg in rats (rats [2]): 750 mg/kg

Compound: O=C([O-])c1cccnc1.[Li+] [Lithium nicotinate]
- LD50, mg/kg in rats (rats [2]): 2200 mg/kg

Compound: [F-].[Li+] [Lithium fluoride]
- LD50, mg/kg in rats (rats [2]): 175 mg/kg

Compound: CC(O)C(=O)[O-].[Li+] (stereo not drawn) [Lithium lactate]
- LD50, mg/kg in rats (rats [2]): 2100 mg/kg
